From US20110053773A1, “METHODS OF IMPROVING NUTRITIONAL VALUE OF PLANTS” (UNIVERSITY OF TENNESSEE RESEARCH FOUNDATION, priority 2009, published 2011)

Columns and labels:
[1] = system: basil 'Genovese'; test: Visual injury of basil after insecticide, fungicide, PGRs, safeners (Example 4)
Summary of the method: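 Read-out: percent visual injury, 0 (no visual response) to 100 (complete plant death), covering general phytotoxicity, chlorosis and stunting. Treatments were chlorpyrifos, chlorothalonil, mepiquat-chloride, paclobutrazol, napthalic anhydride, isoxadifen-ethyl, applied postemergence. Harvest at ~4 weeks.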

[2] = system: kale 'Red Russian'; test: Content analysis of kale: protein, amino acids, fiber, fatty acids, minerals (Example 4, Tables 12-14); format: in vivo; settings: 28 DA-A; for Alanine, Percent Increase over the Untreated Check (on a % dry matter basis) / Aspartic acid, Percent Increase over the Untreated Check (on a % dry matter basis) / Cysteine, Percent Increase over the Untreated Check (on a % dry matter basis) / Glutamic acid, Percent Increase over the Untreated Check (on a % dry matter basis) / Glycine, Percent Increase over the Untreated Check (on a % dry matter basis) / Iso-leucine, Percent Increase over the Untreated Check (on a % dry matter basis) / Leucine, Percent Increase over the Untreated Check (on a % dry matter basis) / Lysine, Percent Increase over the Untreated Check (on a % dry matter basis) / Methionine, Percent Increase over the Untreated Check (on a % dry matter basis) / Proline, Percent Increase over the Untreated Check (on a % dry matter basis) / Threonine, Percent Increase over the Untreated Check (on a % dry matter basis) / Total Amino acids, Percent Increase over the Untreated Check (on a % dry matter basis) / Total Protein, Percent Increase over the Untreated Check (on a % dry matter basis) / Valine, Percent Increase over the Untreated Check (on a % dry matter basis): chlorothalonil ###
Procedure: Greenhouse and laboratory studies were conducted to ascertain the tolerance and nutritional quality differences following postemergence applications of the insecticide chlorpyrifos, the fungicide chlorothalonil, the PGRs mepiquat-chloride and paclobutrazol, and the safeners napthalic anhydride and isoxadifen-ethyl on kale ‘Red Russian’ and basil ‘Genovese’. Visual injury was rated based on general phytotoxicity, chlorosis, and visual stunting and each measurement was based on a percent scale from 0 to 100 where 0 equals no visual response and 100 equals complete plant death. Kale and basil were both harvested approximately 4 weeks after treatments and plants were pooled over replicates for content analysis of crude protein, crude amino acid content, acid detergent fiber, neutral detergent fiber, total fatty acids, and/or key mineral content (including Na, Ca, P, Mg, K, Fe, Mn, Zn, and Cu). In addition, the amounts of key individual amino acids (aspartic acid, threonine, glutamic acid, proline, glycine, cysteine, valine, leucine, isoleucine, methionine, and lysine) and composite classifications of fatty acid (saturated fatty acids, monounsaturated fatty acids, polyunsaturated fatty acids) were also analyzed from these sub-samples for kale (Tables 10-14).

[3] = 14 DA-A, rates g ai/ha: chlropyrifos 3370, chlorothalonil 7900, paclobutrazol 9.7, mepiquat-chloride 37, Isoxadifen 16, Napthalic anhydride 527, + NIS 0.25 % v/v
[4] = 28 DA-A, rates g ai/ha: chlropyrifos 1120, chlorothalonil 2630, paclobutrazol 3.23, mepiquat-chloride 12.3, Isoxadifen 8, Napthalic anhydride 264, + NIS 0.25 % v/v
[5] = 28 DA-A, rates g ai/ha: chlropyrifos 3370, chlorothalonil 7900, paclobutrazol 9.7, mepiquat-chloride 37, Isoxadifen 16, Napthalic anhydride 527, + NIS 0.25 % v/v
[6] = first-listed rate g ai/ha: chlropyrifos ###, paclobutrazol 3.2, mepiquat-chloride 12, + NIS 0.3 % v/v
[7] = rates g ai/ha: chlropyrifos 1120, chlorothalonil 2630, paclobutrazol 3.23, mepiquat-chloride 12.3, + NIS 0.25 % v/v
[8] = rates g ai/ha: chlropyrifos 3370, chlorothalonil 7900, paclobutrazol 9.7, mepiquat-chloride 37, + NIS 0.25 % v/v
[9] = second-listed rate g ai/ha: chlropyrifos ###, paclobutrazol 9.7, mepiquat-chloride 37, + NIS 0.3 % v/v

## N#Cc1c(Cl)c(Cl)c(Cl)c(C#N)c1Cl [chlorothalonil]
[1]; [3]
  Phytotoxicity General: 2%
  Phytotoxicity Stunting: 7%
[1]; [4]
  Phytotoxicity Chlorosis: 5%
  Phytotoxicity General: 10%
  Phytotoxicity Stunting: 7%
[1]; [5]
  Phytotoxicity Chlorosis: 10%
  Phytotoxicity General: 3%
  Phytotoxicity Stunting: 10%
[2]; [6]
  Alanine, Percent Increase over the Untreated Check (on a % dry matter basis): 3 % check
  Aspartic acid, Percent Increase over the Untreated Check (on a % dry matter basis): 2 % check
  Cysteine, Percent Increase over the Untreated Check (on a % dry matter basis): −6 % check
  Glutamic acid, Percent Increase over the Untreated Check (on a % dry matter basis): 5 % check
  Glycine, Percent Increase over the Untreated Check (on a % dry matter basis): 0 % check
  Iso-leucine, Percent Increase over the Untreated Check (on a % dry matter basis): 4 % check
  Leucine, Percent Increase over the Untreated Check (on a % dry matter basis): 4 % check
  Lysine, Percent Increase over the Untreated Check (on a % dry matter basis): 5 % check
  Methionine, Percent Increase over the Untreated Check (on a % dry matter basis): 2 % check
  Proline, Percent Increase over the Untreated Check (on a % dry matter basis): 6 % check
  Threonine, Percent Increase over the Untreated Check (on a % dry matter basis): 3 % check
  Total Amino acids, Percent Increase over the Untreated Check (on a % dry matter basis): 3 % check
  Total Protein, Percent Increase over the Untreated Check (on a % dry matter basis): 1 % check
  Valine, Percent Increase over the Untreated Check (on a % dry matter basis): 4 % check
[2]; [7]
  ADF, Percent Increase Over the Untreated Check (on a % dry matter basis): 9 % check
  Calcium, Percent Increase Over the Untreated Check (on a % dry matter basis): −6 % check
  Copper, Percent Increase Over the Untreated Check (on a % dry matter basis): 6 % check
  Iron, Percent Increase Over the Untreated Check (on a % dry matter basis): −1 % check
  Magnesium, Percent Increase Over the Untreated Check (on a % dry matter basis): −3 % check
  Manganese, Percent Increase Over the Untreated Check (on a % dry matter basis): 3 % check
  NDF, Percent Increase Over the Untreated Check (on a % dry matter basis): −8 % check
  Phosphorous, Percent Increase Over the Untreated Check (on a % dry matter basis): 0 % check
  Potassium, Percent Increase Over the Untreated Check (on a % dry matter basis): −9 % check
  Sodium, Percent Increase Over the Untreated Check (on a % dry matter basis): 4 % check
  Zinc, Percent Increase Over the Untreated Check (on a % dry matter basis): −4 % check
[2]; [8]
  ADF, Percent Increase Over the Untreated Check (on a % dry matter basis): 0 % check
  Calcium, Percent Increase Over the Untreated Check (on a % dry matter basis): −1 % check
  Copper, Percent Increase Over the Untreated Check (on a % dry matter basis): 6 % check
  Iron, Percent Increase Over the Untreated Check (on a % dry matter basis): −3 % check
  Magnesium, Percent Increase Over the Untreated Check (on a % dry matter basis): −3 % check
  Manganese, Percent Increase Over the Untreated Check (on a % dry matter basis): 4 % check
  NDF, Percent Increase Over the Untreated Check (on a % dry matter basis): −5 % check
  Phosphorous, Percent Increase Over the Untreated Check (on a % dry matter basis): −3 % check
  Potassium, Percent Increase Over the Untreated Check (on a % dry matter basis): −3 % check
  Sodium, Percent Increase Over the Untreated Check (on a % dry matter basis): 23 % check
  Zinc, Percent Increase Over the Untreated Check (on a % dry matter basis): −3 % check
[2]; [9]
  Alanine, Percent Increase over the Untreated Check (on a % dry matter basis): −5 % check
  Aspartic acid, Percent Increase over the Untreated Check (on a % dry matter basis): −4 % check
  Cysteine, Percent Increase over the Untreated Check (on a % dry matter basis): −6 % check
  Glutamic acid, Percent Increase over the Untreated Check (on a % dry matter basis): −5 % check
  Glycine, Percent Increase over the Untreated Check (on a % dry matter basis): −7 % check
  Iso-leucine, Percent Increase over the Untreated Check (on a % dry matter basis): −2 % check
  Leucine, Percent Increase over the Untreated Check (on a % dry matter basis): −1 % check
  Lysine, Percent Increase over the Untreated Check (on a % dry matter basis): −3 % check
  Methionine, Percent Increase over the Untreated Check (on a % dry matter basis): −2 % check
  Proline, Percent Increase over the Untreated Check (on a % dry matter basis): −3 % check
  Threonine, Percent Increase over the Untreated Check (on a % dry matter basis): −1 % check
  Total Amino acids, Percent Increase over the Untreated Check (on a % dry matter basis): −4 % check
  Total Protein, Percent Increase over the Untreated Check (on a % dry matter basis): −3 % check
  Valine, Percent Increase over the Untreated Check (on a % dry matter basis): −3 % check
